≈ marks a conversion by molar mass, not a printed value.
Tests used:
[1] = tested on: HBV DNA; experiment: In vitro anti-HBV activity: replication of HBV DNA in 2.2.15 cells (dot hybridization); assay type: cell-based, Hepatitis B virus (HBV); conditions: for IC50: Hepatitis B virus, read-out: DNA replication IC50; for DNA replication SI: selectivity index
Protocol: (§1) All compounds were evaluated for their anti-HBV activities, namely the ability to inhibit the replication of HBV DNA and the production of HBsAg and HBeAg in HBV-infected 2.2.15 cells.
(§2) The samples were dissolved in DMSO for appropriate concentrations, and then each was diluted 3-fold with culture medium. The 2.2.15 cells were planted into 96-well culture plates. […] The culture supernatants and 2.2.15 cells were collected respectively on the 8th plant day. The secretion concentrations of HBsAg and HBeAg in the culture supernatants were measured by RIA on SPRIA Kit for Detection of HBsAg and HBeAg (Beijing North Institute of Biological Technology), and the replication of HBV DNA was measured by dot hybridization with a^32PdCTP (FuRui Biological Technology Ltd., China).

[2] = tested on: 2.2.15 cells; experiment: Cytotoxicity (TC50) in 2.2.15 cells; assay type: cell-based
Protocol: as §1, §2

[3] = target: T1, HIV-1 protease (Human immunodeficiency virus type 1 group M subtype B, UniProt P04585); experiment: Anti-HIV-1 protease activity (fluorescence labeled substrate); assay type: biochemical; conditions: for inhibition ratio at 0.5 ug/ml: sample concentration 0.5 ug/ml; for inhibition ratio at 2.0 ug/ml: sample concentration 2.0 ug/ml; for inhibition ratio at 10 ug/ml: sample concentration 10 ug/ml; for inhibition ratio at 50 ug/ml: sample concentration 50 ug/ml; for inhibition ratio at 250 ug/ml: sample concentration 250 ug/ml
T1 construct: The genetically engineered target enzyme (HIV-1 protease, preserved at −85° C.)
Protocol: HIV-1 protease can cut the fluorescence labeled substrate under optimal condition and reaction system, so the activity of enzyme is determined by the fluorescence in the product of enzymatic reaction. The samples are added into the reaction system to observe the inhibitive effect on the enzyme.
The samples and the reference drug Indinavir ([…].) were dissolved in DMSO or redistilled water for appropriate concentration. Each was diluted 5-fold and then added into the buffer containing fluorescence labeled substrate (MP Co.). The genetically engineered target enzyme (HIV-1 protease, preserved at −85° C.) was added to the buffer and incubated under the optimal reaction condition. The fluorescence was determined by FLUO star Galaxy fluorometer.

Structure (SMILES) | IC50 [1] | DNA replication SI [1] | TC50 [2] | IC50 [3] | inhibition ratio at 0.5 ug/ml [3] | inhibition ratio at 2.0 ug/ml [3] | inhibition ratio at 10 ug/ml [3] | inhibition ratio at 50 ug/ml [3] | inhibition ratio at 250 ug/ml [3]
CCOC(=O)c1c(C[S+]([O-])Cc2ccoc2)n(C)c2ccc(O)c(CN3CCCCC3)c12.Cl (stereo not drawn) [Example 77, Ethyl 5-hydroxy-1-methyl-4-(piperidinomethyl)-2-[(3-furylmethyl)sulfinylmethyl]-1H-indole-3-carboxylate hydrochloride] | 18.1 µg/mL | 4.09 | 74.07 µg/mL |  |  |  |  |  | 
CCOC(=O)c1c(C[S+]([O-])c2ccccc2OC)n(C)c2cc(Br)c(O)c(CNC(=N)N)c12.Cl (stereo not drawn) [Example 151, Ethyl 6-bromo-4-(guanidinylmethyl)-5-hydroxy-1-methyl-2-[(2-methoxyphenyl)-sulfinylmethyl]-1H-indole-3-carboxylate hydrochloride] | 1.8 µg/mL | 35.6 | 64.15 µg/mL |  |  |  |  |  | 
CCOC(=O)c1c(C[S+]([O-])c2ccc(F)c(F)c2)n(C)c2cc(Br)c(O)c(Cn3ccnc3C)c12.Cl (stereo not drawn) [Example 133, Ethyl 6-bromo-5-hydroxy-1-methyl-4-[(2-methyl-1-imidazolyl)methyl]-2-[(3,4-difluorophenyl)sulfinylmethyl]-1H-indole-3-carboxylate hydrochloride] | 6.37 µg/mL | 6.28 | 40.0 µg/mL |  |  |  |  |  | 
CCOC(=O)c1c(CS(=O)(=O)c2ccc(C)cc2)n(C)c2ccc(O)c(Cn3ccnc3)c12 [Example 164, Ethyl 5-hydroxy-4-[(1-imidazolyl)methyl]-1-methyl-2-[(4-methylphenyl)sulfonylmethyl]-1H-indole-3-carboxylate] | 2 µg/mL (≈ 4.28 µM) | 8.9 | 17.7 µg/mL (≈ 37.9 µM) |  |  |  |  |  | 
CCOC(=O)c1c(C[S+]([O-])c2ccc(C)cc2)n(C)c2cc(Br)c(O)c(CNC(=N)N)c12.Cl (stereo not drawn) [Example 152, Ethyl 6-bromo-4-(guanidinylmethyl)-5-hydroxy-1-methyl-2-[(4-methylphenyl)sulfinylmethyl]-1H-indole-3-carboxylate hydrochloride] | 10.2 µg/mL | 18.8 | 192.45 µg/mL |  |  |  |  |  | 
CCOC(=O)c1c(C[S+]([O-])c2ccccc2F)n(C)c2cc(Br)c(O)c(Cn3ccnc3)c12 (stereo not drawn) [Example 125, Ethyl 6-bromo-5-hydroxy-4-[(1-imidazolyl)methyl]-1-methyl-2-[(2-fluorophenyl)sulfinylmethyl]-1H-indole-3-carboxylate] | 8.76 µg/mL (≈ 16.4 µM) | 5.49 | 48.1 µg/mL (≈ 90 µM) |  |  |  |  |  | 
CCOC(=O)c1c(C[S+]([O-])c2cccc(Cl)c2)n(C)c2cc(Br)c(O)c(CN3CCOCC3)c12 (stereo not drawn) [Example 59, Ethyl 6-bromo-5-hydroxy-1-methyl-4-(morpholinomethyl)-2-[(3-chlorophenyl)sulfinylmethyl]-1H-indole-3-carboxylate] | 26.6 µg/mL (≈ 46.7 µM) | 10.8 | 288.68 µg/mL (≈ 507 µM) |  |  |  |  |  | 
CCOC(=O)c1c(C[S+]([O-])Cc2cccc(F)c2)n(C)c2cc(Br)c(O)c(CN(C)C)c12 (stereo not drawn) [Example 81, Ethyl 6-bromo-4-[(dimethylamino)methyl]-5-hydroxy-1-methyl-2-[(3-fluorobenzyl)sulfinylmethyl]-1H-indole-3-carboxylate] | 0.715 µg/mL (≈ 1.36 µM) | 49.8 | 35.61 µg/mL (≈ 67.8 µM) |  |  |  |  |  | 
CCOC(=O)c1c(C[S+]([O-])c2ccccc2OC)n(C)c2cc(Br)c(O)c(Cn3ccnc3C)c12.Cl (stereo not drawn) [Example 135, Ethyl 6-bromo-5-hydroxy-1-methyl-4-[(2-methyl-1-imidazolyl)methyl]-2-[(2-methoxyphenyl)sulfinylmethyl]-1H-indole-3-carboxylate hydrochloride] | 2.4 µg/mL | 22.3 | 53.42 µg/mL |  |  |  |  |  | 
CCOC(=O)c1c(C[S+]([O-])c2ccc(C)cc2)n(C)c2ccc(O)c(Cn3ccnc3C)c12 (stereo not drawn) [Example 142, Ethyl 5-hydroxy-1-methyl-4-[(2-methyl-1-imidazolyl)methyl]-2-[(4-methylphenyl)sulfinylmethyl]-1H-indole-3-carboxylate] | 23.8 µg/mL (≈ 51.1 µM) | 4.49 | 106.83 µg/mL (≈ 229 µM) |  |  |  |  |  | 
CCOC(=O)c1c(C[S+]([O-])Cc2ccc(F)cc2)n(C)c2cc(Br)c(O)c(Cn3ccnc3C)c12 (stereo not drawn) [Example 184, Ethyl 6-bromo-5-hydroxy-1-methyl-4-[(2-methyl-1-imidazolyl)methyl]-2-[(4-fluorobenzyl)sulfinylmethyl]-1H-indole-3-carboxylate] | 0.94 µg/mL (≈ 1.67 µM) | 56.83 | 53.42 µg/mL (≈ 95 µM) |  |  |  |  |  | 
CCOC(=O)c1c(CS(=O)(=O)Cc2ccc(F)cc2)n(C)c2cc(Br)c(O)c(Cn3ccnc3C)c12 [Example 185, Ethyl 6-bromo-5-hydroxy-1-methyl-4-[(2-methyl-1-imidazolyl)methyl]-2-[(4-fluorobenzyl)sulfonylmethyl]-1H-indole-3-carboxylate] | 1.3 µg/mL (≈ 2.25 µM) | 9.5 | 12.35 µg/mL (≈ 21.3 µM) |  |  |  |  |  | 
CCOC(=O)c1c(C[S+]([O-])Cc2ccc(F)cc2)n(C)c2cc(Br)c(O)c(CN(C)C)c12 (stereo not drawn) [Example 80, Ethyl 6-bromo-4-[(dimethylamino)methyl]-5-hydroxy-1-methyl-2-[(4-fluorobenzyl)sulfinylmethyl]-1H-indole-3-carboxylate] | 0.27 µg/mL (≈ 0.514 µM) | 3.37 | <0.91 µg/mL |  |  |  |  |  | 
CCOC(=O)c1c(C[S+]([O-])c2ccc(F)c(F)c2)n(C2CC2)c2cc(Br)c(O)c(Cn3ccnc3)c12 (stereo not drawn) [Example 119, Ethyl 6-bromo-1-cyclopropyl-5-hydroxy-4-[(1-imidazolyl)methyl]-2-[(3,4-difluorophenyl)sulfinylmethyl]-1H-indole-3-carboxylate] | 3.6 µg/mL (≈ 6.22 µM) | 5.8 | 21.11 µg/mL (≈ 36.5 µM) |  |  |  |  |  | 
CCOC(=O)c1c(CS(=O)(=O)Cc2ccco2)n(C2CC2)c2cc(Br)c(O)c(Cn3ccnc3)c12 [Example 162, Ethyl 6-bromo-1-cyclopropyl-5-hydroxy-4-[(1-imidazolyl)methyl]-2-[(2-furylmethyl)sulfonylmethyl]-1H-indole-3-carboxylate] | 51.7 µg/mL (≈ 92 µM) | 2.48 | 128.30 µg/mL (≈ 228 µM) |  |  |  |  |  | 
CCOC(=O)c1c(C[S+]([O-])Cc2ccc(F)cc2)n(C)c2cc(Br)c(O)c(CN3CCCCC3)c12 (stereo not drawn) [Example 86, Ethyl 6-bromo-5-hydroxy-1-methyl-4-(piperidinomethyl)-2-[(4-fluorobenzyl)sulfinylmethyl]-1H-indole-3-carboxylate] | 0.64 µg/mL (≈ 1.13 µM) | 11.14 | 7.13 µg/mL (≈ 12.6 µM) |  |  |  |  |  | 
CCOC(=O)c1c(CS(=O)(=O)Cc2ccccc2)n(C)c2cc(Br)c(O)c(Cn3ccnc3C)c12 [Example 168, Ethyl 6-bromo-5-hydroxy-1-methyl-4-[(2-methyl-1-imidazolyl)methyl]-2-(benzylsulfonylmethyl)-1H-indole-3-carboxylate] | 7.04 µg/mL (≈ 12.6 µM) | 5.06 | 35.61 µg/mL (≈ 63.5 µM) |  |  |  |  |  | 
CCOC(=O)c1c(C[S+]([O-])Cc2ccc(F)cc2)n(C)c2cc(Br)c(O)c(CN3CCOCC3)c12.Cl (stereo not drawn) [Example 64, Ethyl 6-bromo-5-hydroxy-1-methyl-4-(morpholinomethyl)-2-[(4-fluorobenzyl)sulfinylmethyl]-1H-indole-3-carboxylate hydrochloride] | 0.76 µg/mL | 32.48 | 24.69 µg/mL |  |  |  |  |  | 
CCOC(=O)c1c(C[S+]([O-])c2cccc(C)c2)n(C)c2cc(Br)c(O)c(Cn3ccnc3C)c12 (stereo not drawn) [Example 134, Ethyl 6-bromo-5-hydroxy-1-methyl-4-[(2-methyl-1-imidazolyl)methyl]-2-[(3-methylphenyl)sulfinylmethyl]-1H-indole-3-carboxylate] | 3.8 µg/mL (≈ 6.98 µM) | 19.1 | 53.42 µg/mL (≈ 98.1 µM) |  |  |  |  |  | 
CCOC(=O)c1c(CS(=O)(=O)c2ccccc2)n(C)c2cc(Br)c(O)c(Cn3ccnc3C)c12 [Example 166, Ethyl 6-bromo-5-hydroxy-1-methyl-4-[(2-methyl-1-imidazolyl)methyl]-2-(phenylsulfonylmethyl)-1H-indole-3-carboxylate] | 7.53 µg/mL (≈ 13.8 µM) | 7.09 | 53.42 µg/mL (≈ 97.8 µM) |  |  |  |  |  | 
CCOC(=O)c1c(C[S+]([O-])c2ccccc2)n(C)c2cc(Br)c(O)c(Cn3ccnc3C)c12 (stereo not drawn) [Example 131, Ethyl 6-bromo-5-hydroxy-1-methyl-4-[(2-methyl-1-imidazolyl)methyl]-2-(phenylsulfinylmethyl)-1H-indole-3-carboxylate] |  |  |  | 294 µM | 4.6 | 14.6 | 7.1 | 7.7 | 55.1
CCOC(=O)c1c(CS(=O)(=O)c2ccc(F)c(F)c2)n(C2CC2)c2cc(Br)c(O)c(Cn3ccnc3)c12 [Example 160, Ethyl 6-bromo-1-cyclopropyl-5-hydroxy-4-[(1-imidazolyl)methyl]-2-[(3,4-difluorophenyl)sulfonylmethyl]-1H-indole-3-carboxylate] |  |  |  | 21.3 µM | 6.1 | 11.7 | 29.1 | 71.8 | 97.8

Source: patent US7960427B2, “5-hydroxyindole-3-carboxylate derivatives and uses thereof” (priority 2004, dated 2011)
